Laboratory results reported in US20240174675A1, “SMALL MOLECULE REGULATORS OF ALVEOLAR TYPE 2 CELL PROLIFERATION FOR THE TREATMENT OF PULMONARY DISEASES” (THE SCRIPPS RESEARCH INSTITUTE, priority 2021, published 2024).

What was measured:
Human DPP4 = target: T1, Human DPP4 (Homo sapiens, UniProt P27487); assay: DPP4 activity assay (DPP4 Activity Assay Kit, fluorescent substrate); type: biochemical; conditions: Human DPP4; read-out: DPP4 inhibition IC50 [nM])
T1 construct: purchased Sigma-Aldrich MAK088
Description: DPP4 activity assay. Human DPP4 activity assay data were obtained using a DPP4 Activity Assay Kit (Sigma-Aldrich, MAK088) according to the manufacturer's instructions. Briefly, 10 μL of DPP4 Assay Buffer were transferred per well in low volume 384-well plates before transferring 10 μL of test compound dissolved in DPP4 assay buffer. To each well was added 5 μL of Master Reaction Mix containing a fluorescent substrate that becomes fluorescent upon cleavage by the enzyme. Fluorescence intensity measurements were recorded at 1-minute time intervals over the course of 20 minutes using an Envision Multimode Plate Reader (PerkinElmer).

[1] = Pharmacokinetic profiling, plasma and lung levels after intratracheal or inhalation delivery in the mouse; type: in vivo; conditions: mouse; IT dosing at 2 mg/kg (FIG. 2); after 48 h

T1 sequence (P27487 whole entry): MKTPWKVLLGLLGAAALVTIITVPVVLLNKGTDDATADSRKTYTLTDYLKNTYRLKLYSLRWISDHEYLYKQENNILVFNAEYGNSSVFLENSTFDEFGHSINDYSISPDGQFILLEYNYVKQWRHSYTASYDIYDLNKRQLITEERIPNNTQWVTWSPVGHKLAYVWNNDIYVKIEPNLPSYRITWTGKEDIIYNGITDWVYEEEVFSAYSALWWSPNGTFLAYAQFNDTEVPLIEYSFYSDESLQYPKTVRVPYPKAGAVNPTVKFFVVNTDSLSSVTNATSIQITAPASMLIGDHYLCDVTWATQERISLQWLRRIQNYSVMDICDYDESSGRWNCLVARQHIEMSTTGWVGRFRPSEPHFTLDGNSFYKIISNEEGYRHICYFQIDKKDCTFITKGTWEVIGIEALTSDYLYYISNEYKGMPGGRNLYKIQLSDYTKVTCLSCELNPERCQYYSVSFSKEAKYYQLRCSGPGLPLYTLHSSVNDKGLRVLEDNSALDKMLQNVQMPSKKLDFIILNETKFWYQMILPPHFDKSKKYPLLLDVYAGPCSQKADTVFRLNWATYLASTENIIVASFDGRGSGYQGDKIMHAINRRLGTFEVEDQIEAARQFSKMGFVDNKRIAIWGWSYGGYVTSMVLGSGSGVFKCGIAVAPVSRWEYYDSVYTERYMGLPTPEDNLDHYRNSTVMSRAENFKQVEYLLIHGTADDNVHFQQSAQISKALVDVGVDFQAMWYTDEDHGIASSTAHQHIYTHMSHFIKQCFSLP

IC50 (Human DPP4) | level in the lung after 48 h [1] | SMILES
41 nM | – | CC#CCn1c(N2CCC[C@@H](N)C2)nc2c1c(=O)n(Cc1nc(NCCCCCCCn3cc(CN(C[C@H](O)[C@@H](O)[C@H](O)[C@H](O)CO)C[C@H](O)[C@@H](O)[C@H](O)[C@H](O)CO)nn3)ccc1C(=O)OC)c(=O)n2C [Compound 34, methyl 2-((8-((R)-3-aminopiperidin-1-yl)-7-(but-2-yn-1-yl)-3-methyl-2,6-dioxo-2,3,6,7-tetrahydro-1H-purin-1-yl)methyl)-6-((7-(4-((bis((2S,3R,4R,5R)-2,3,4,5,6-pentahydroxyhexyl)amino)methyl)-1H-1,2,3-triazol-1-yl)heptyl)amino)nicotinate]
34.3 nM | – | CC#CCn1c(N2CCC[C@@H](N)C2)nc2c1c(=O)n(Cc1nc(NCCCCCCCn3cc(CN(C[C@H](O)[C@@H](O)[C@H](O)[C@H](O)CO)C[C@H](O)[C@@H](O)[C@H](O)[C@H](O)CO)nn3)ccc1C(=O)O)c(=O)n2C [Compound 35, 2-((8-((R)-3-aminopiperidin-1-yl)-7-(but-2-yn-1-yl)-3-methyl-2,6-dioxo-2,3,6,7-tetrahydro-1H-purin-1-yl)methyl)-6-((7-(4-((bis((2S,3R,4R,5R)-2,3,4,5,6-pentahydroxyhexyl)amino)methyl)-1H-1,2,3-triazol-1-yl)heptyl)amino)nicotinic acid]
27 nM | – | CC#CCn1c(N2CCC[C@@H](N)C2)nc2c1c(=O)n(Cc1ccc(Cl)cc1Br)c(=O)n2C [Compound 36]
700 nM | – | CC#CCn1c(N2CCC[C@@H](N)C2)nc2c1c(=O)n(Cc1ccc(Cl)cc1C(=O)OC(C)C)c(=O)n2C [Compound 37]
> 10000 nM | – | CC#CCn1c(N2CCC[C@@H](N)C2)nc2c1c(=O)n(Cc1ccc(Cl)cc1C(=O)OCCCCCC)c(=O)n2C [Compound 38, hexyl (R)-2-((8-(3-aminopiperidin-1-yl)-7-(but-2-yn-1-yl)-3-methyl-2,6-dioxo-2,3,6,7-tetrahydro-1H-purin-1-yl)methyl)-5-chlorobenzoate]
700 nM | – | CC#CCn1c(N2CCC[C@@H](N)C2)nc2c1c(=O)n(Cc1ccc(Cl)cc1C(=O)NCCCCC)c(=O)n2C [Compound 40, (R)-2-((8-(3-aminopiperidin-1-yl)-7-(but-2-yn-1-yl)-3-methyl-2,6-dioxo-2,3,6,7-tetrahydro-1H-purin-1-yl)methyl)-5-chloro-N-pentylbenzamide]
> 10000 nM | – | CC#CCn1c(N2CCC[C@@H](N)C2)nc2c1c(=O)n(Cc1ccc(Cl)cc1C(=O)OCCOCCn1cc(CN(CCCCCC)C[C@H](O)[C@@H](O)[C@H](O)[C@H](O)CO)nn1)c(=O)n2C [Compound 41, 2-(2-(4-((hexyl(2,3,4,5,6-pentahydroxyhexyl)amino)methyl)-1H-1,2,3-triazol-1-yl)ethoxy)ethyl 2-((8-((R)-3-aminopiperidin-1-yl)-7-(but-2-yn-1-yl)-3-methyl-2,6-dioxo-2,3,6,7-tetrahydro-1H-purin-1-yl)methyl)-5-chlorobenzoate]
0.4 nM | – | [N-]=[N+]=NCCOCCOCCOC(=O)c1nc(C(F)(F)F)n2c1CN(C(=O)C[C@H](N)Cc1cc(F)c(F)cc1F)CC2 [Compound 42, 2-(2-(2-azidoethoxy)ethoxy)ethyl (R)-7-(3-amino-4-(2,4,5-trifluorophenyl)butanoyl)-3-(trifluoromethyl)-5,6,7,8-tetrahydroimidazo[1,5-a]pyrazine-1-carboxylate]
1 nM | – | [N-]=[N+]=NCCOCCOCCNC(=O)c1nc(C(F)(F)F)n2c1CN(C(=O)C[C@H](N)Cc1cc(F)c(F)cc1F)CC2 [Compound 43]
0.11 nM | – | N[C@@H](CC(=O)N1CCn2c(C(F)(F)F)nc(C(=O)OCCOCCOCCn3cc(CNC[C@H](O)[C@@H](O)[C@H](O)[C@H](O)CO)nn3)c2C1)Cc1cc(F)c(F)cc1F [Compound 44, 2-(2-(2-(4-((((2S,3R,4R,5R)-2,3,4,5,6-pentahydroxyhexyl)amino)methyl)-1H-1,2,3-triazol-1-yl)ethoxy)ethoxy)ethyl 7-((R)-3-amino-4-(2,4,5-trifluorophenyl)butanoyl)-3-(trifluoromethyl)-5,6,7,8-tetrahydroimidazo[1,5-a]pyrazine-1-carboxylate]
0.55 nM | – | CCN(Cc1cn(CCOCCOCCOC(=O)c2nc(C(F)(F)F)n3c2CN(C(=O)C[C@H](N)Cc2cc(F)c(F)cc2F)CC3)nn1)C[C@H](O)[C@@H](O)[C@H](O)[C@H](O)CO [Compound 45, 2-(2-(2-(4-((ethyl((2S,3R,4R,5R)-2,3,4,5,6-pentahydroxyhexyl)amino)methyl)-1H-1,2,3-triazol-1-yl)ethoxy)ethoxy)ethyl 7-((R)-3-amino-4-(2,4,5-trifluorophenyl)butanoyl)-3-(trifluoromethyl)-5,6,7,8-tetrahydroimidazo[1,5-a]pyrazine-1-carboxylate]
2.2 nM | – | CCCCCCN(Cc1cn(CCOCCOCCNC(=O)c2nc(C(F)(F)F)n3c2CN(C(=O)C[C@H](N)Cc2cc(F)c(F)cc2F)CC3)nn1)CC(O)C(O)C(O)C(O)CO (stereo partly drawn) [Compound 47, 7-((R)-3-amino-4-(2,4,5-trifluorophenyl)butanoyl)-N-(2-(2-(2-(4-((hexyl(2,3,4,5,6-pentahydroxyhexyl)amino)methyl)-1H-1,2,3-triazol-1-yl)ethoxy)ethoxy)ethyl)-3-(trifluoromethyl)-5,6,7,8-tetrahydroimidazo[1,5-a]pyrazine-1-carboxamide]
0.55 nM | – | N[C@@H](CC(=O)N1CCn2c(C(F)(F)F)nc(C(=O)OCCOCCOCCn3cc(CN(C[C@H](O)[C@@H](O)[C@H](O)[C@H](O)CO)C[C@H](O)[C@@H](O)[C@H](O)[C@H](O)CO)nn3)c2C1)Cc1cc(F)c(F)cc1F [Compound 48, 2-(2-(2-(4-((bis((2S,3R,4R,5R)-2,3,4,5,6-pentahydroxyhexyl)amino)methyl)-1H-1,2,3-triazol-1-yl)ethoxy)ethoxy)ethyl 7-((R)-3-amino-4-(2,4,5-trifluorophenyl)butanoyl)-3-(trifluoromethyl)-5,6,7,8-tetrahydroimidazo[1,5-a]pyrazine-1-carboxylate]
0.82 nM | – | N[C@@H](CC(=O)N1CCn2c(C(F)(F)F)nc(C(=O)OCCN3CCOCC3)c2C1)Cc1cc(F)c(F)cc1F [Compound 49, (R)-4-(1-((2-morpholinoethoxy)carbonyl)-3-(trifluoromethyl)-5,6-dihydroimidazo[1,5-a]pyrazin-7(8H)-yl)-4-oxo-1-(2,4,5-trifluorophenyl)butan-2-aminium (2R,3S)-3-carboxy-2,3-dihydroxypropanoate]
0.54 nM | – | N[C@@H](CC(=O)N1CCn2c(C(F)(F)F)nc(C(=O)NCCOCCN3CCOCC3)c2C1)Cc1cc(F)c(F)cc1F [Compound 50, (R)-4-(1-((2-(2-morpholinoethoxy)ethyl)carbamoyl)-3-(trifluoromethyl)-5,6-dihydroimidazo[1,5-a]pyrazin-7(8H)-yl)-4-oxo-1-(2,4,5-trifluorophenyl)butan-2-aminium (2R,3R)-3-carboxy-2,3-dihydroxypropanoate]
0.18 nM | – | N[C@@H](CC(=O)N1CCn2c(C(F)(F)F)nc(C(=O)OCCCN3CCOCC3)c2C1)Cc1cc(F)c(F)cc1F [Compound 51, (R)-4-(1-((3-morpholinopropoxy)carbonyl)-3-(trifluoromethyl)-5,6-dihydroimidazo[1,5-a]pyrazin-7(8H)-yl)-4-oxo-1-(2,4,5-trifluorophenyl)butan-2-aminium (2R,3R)-3-carboxy-2,3-dihydroxypropanoate]
0.54 nM | – | N[C@@H](CC(=O)N1CCn2c(C(F)(F)F)nc(C(=O)OCCOCCN3CCOCC3)c2C1)Cc1cc(F)c(F)cc1F [Compound 52, (R)-4-(1-((2-(2-morpholinoethoxy)ethoxy)carbonyl)-3-(trifluoromethyl)-5,6-dihydroimidazo[1,5-a]pyrazin-7(8H)-yl)-4-oxo-1-(2,4,5-trifluorophenyl)butan-2-aminium (2R,3R)-3-carboxy-2,3-dihydroxypropanoate]
1 nM | – | N[C@@H](CC(=O)N1CCn2c(C(F)(F)F)nc(C(=O)OCCCCCN3CCOCC3)c2C1)Cc1cc(F)c(F)cc1F [Compound 53, (R)-4-(1-(((5-morpholinopentyl)oxy)carbonyl)-3-(trifluoromethyl)-5,6-dihydroimidazo[1,5-a]pyrazin-7(8H)-yl)-4-oxo-1-(2,4,5-trifluorophenyl)butan-2-aminium (2R,3R)-3-carboxy-2,3-dihydroxypropanoate]
17.8 nM | – | CN1CC2(CC(NC(=O)c3nc(C(F)(F)F)n4c3CN(C(=O)C[C@H](N)Cc3cc(F)c(F)cc3F)CC4)C2)C1 [Compound 55, (R)-4-(1-((2-methyl-2-azaspiro[3.3]heptan-6-yl)carbamoyl)-3-(trifluoromethyl)-5,6-dihydroimidazo[1,5-a]pyrazin-7(8H)-yl)-4-oxo-1-(2,4,5-trifluorophenyl)butan-2-aminium (2R,3R)-3-carboxy-2,3-dihydroxypropanoate]
– | very low | COC(=O)c1nc(C(F)(F)F)n2c1CN(C(=O)C[C@H](N)Cc1cc(F)c(F)cc1F)CC2 [retagliptin, reference compound]

SMILES | IC50 (Human DPP4) | level in the lung after 48 h [1]
N[C@@H](CC(=O)N1CCn2c(C(F)(F)F)nc(C(=O)OCCCCN3CCOCC3)c2C1)Cc1cc(F)c(F)cc1F [Compound 54, (R)-4-(1-((4-morpholinobutoxy)carbonyl)-3-(trifluoromethyl)-5,6-dihydroimidazo[1,5-a]pyrazin-7(8H)-yl)-4-oxo-1-(2,4,5-trifluorophenyl)butan-2-aminium (2R,3R)-3-carboxy-2,3-dihydroxypropanoate] | 0.5 nM | –
